Tests used:
4T1-Luc2 cells = experiment: 4T1-Luc2 mammary carcinoma tumor resection model: metastasis and survival; type: in vivo, BALB/c mice
Method: BALB/c mice were subcutaneously injected with 4T1-Luc2 cells (5×10^5/100 μl PBS/mouse) into the fourth mammary fat pad under isoflurane anesthesia. Tumor growth was monitored by measuring the tumor volume according to the formula: volume=length×(width)^2/2. After tumors were established (180-200 mm^3) on day 14, test mice were divided into different groups (8 mice/group) and subjected to different treatments. At 15 days post tumor cell implantation, primary 4T1 tumors in situ were surgically removed by a tumor resection process. For drug treatment, mice were administered with different agents, including vehicle-control (PBS), mouse IL-25 protein (10 μg/kg, ProSpec, Vineland, N.J.), Q2-3 (2, […]; […]), by intravenous injection for 3 weeks (3 injections/week) post tumor resection. For in vivo neutralization of mouse IL-25 activity, mice were treated intraperitoneally with either 100 μg anti-mouse IL-25 (IL-17E) antibody (clone 35B; Biolegend) or isotype control rat IgG (100 μg; rat, IgG1κ; Biolegend) at days 0, 3, 6, 9, 12, 15, 18 post tumor resection. To detect metastasis of human MDA-MD-231-Luc2 tumor cells, nude mice were injected subcutaneously with 5×10^5 MDA-MD-231-Luc2 cells into the mammary fat pad under isoflurane anesthesia. After tumors were established (250-350 mm^3) on day 24, test mice were divided into different groups (8 mice/group) and subjected to different treatments. At 25 days post tumor cell implantation, primary MDA-MD-231-Luc2 tumors in situ were surgically removed by a tumor resection process. […] Bioluminescence signals from the 4T1-luc2 tumor cells in test mice were analyzed using a non-invasive IVIS imaging system (Calipers, Hopkinton, Mass.) after intraperitoneal injection of 150 mg/kg D-luciferin (NanoLight technology, Pinetop, Ariz.).
Statistical analysis was performed using an unpaired, two-tailed Student's t-test. […] Differences in tumor metastasis or mouse survival rate were determined by a log-rank (Mantel-Cox) test of the Kaplan-Meier curves. […]

IL-25 = IL-25 expression in lung fibroblasts, 4T1 tumor resection model (IF staining, flow cytometry); type: in vivo, mice
Method: BALB/c mice were subcutaneously injected with 4T1-Luc2 cells (5×10^5/100 μl PBS/mouse) into the fourth mammary fat pad under isoflurane anesthesia. Tumor growth was monitored by measuring the tumor volume according to the formula: volume=length×(width)^2/2. After tumors were established (180-200 mm^3) on day 14, test mice were divided into different groups (8 mice/group) and subjected to different treatments. At 15 days post tumor cell implantation, primary 4T1 tumors in situ were surgically removed by a tumor resection process. For drug treatment, mice were administered with different agents, including vehicle-control (PBS), mouse IL-25 protein (10 μg/kg, ProSpec, Vineland, N.J.), Q2-3 (2, 20 or 100 μg/kg) or docetaxel (2 mg/kg; Sigma-Aldrich), by intravenous injection for 3 weeks (3 injections/week) post tumor resection. For in vivo neutralization of mouse IL-25 activity, mice were treated intraperitoneally with either 100 μg anti-mouse IL-25 (IL-17E) antibody (clone 35B; Biolegend) or isotype control rat IgG (100 μg; rat, IgG1κ; Biolegend) at days 0, 3, 6, 9, 12, 15, 18 post tumor resection. To detect metastasis of human MDA-MD-231-Luc2 tumor cells, nude mice were injected subcutaneously with 5×10^5 MDA-MD-231-Luc2 cells into the mammary fat pad under isoflurane anesthesia. After tumors were established (250-350 mm^3) on day 24, test mice were divided into different groups (8 mice/group) and subjected to different treatments. At 25 days post tumor cell implantation, primary MDA-MD-231-Luc2 tumors in situ were surgically removed by a tumor resection process. For drug treatment, mice were administered with PBS (vehicle-control), Q2-3 (100 μg/kg), docetaxel (5 mg/kg) or Q2-3 (100 μg/kg)+docetaxel (5 mg/kg), by intravenous injection for 3 weeks (3 injections/week) post tumor resection. To monitor the progression of mouse (4T1) or human (MDA-MD-231) metastatic tumors, test mice treated with different drugs/agents were compared for their tumor metastatic activity and survival rate aftern another 8 weeks. Bioluminescence signals from the 4T1-luc2 tumor cells in test mice were analyzed using a non-invasive IVIS imaging system (Calipers, Hopkinton, Mass.) after intraperitoneal injection of 150 mg/kg D-luciferin (NanoLight technology, Pinetop, Ariz.).
Lung tissue specimens obtained from each tumor-resected mouse were fixed with 4% formalin and embedded in paraffin. For histological comparison, 6 μm-thick tissue sections were made and stained with hematoxylin and eosin (H&E). For immunofluorescence staining, fixed tissue sections were initially immersed in boiling sodium citrate buffer (0.01 M sodium citrate buffer, pH 6.0) for 30 min Lung tissue sections were blocked with 5% nonfat milk, and incubated with anti-FSP-1 antibody (1:200 dilution; Millipore), FITC-conjugated anti-CD206 antibody (1:200 dilution; Biolegend) or PE-conjugated anti-IL-25 antibody (1:100; R&D) in 1% nonfat milk for 1 hour at room temperature. Sections were then washed with PBS containing 0.1% Tween 20. To detect primary antibodies, some sections were incubated with FITC-conjugated anti-mouse-IgG (1:200; Jackson Immunoresearch, West Grove, Pa.) for FSP-1. 4′,6-Diamidino-2-phenylindole dihydrochloride (1 μg/ml; Sigma-Aldrich) was used to stain the nuclei. Fluorescence microscopy evaluation of immunostained tissue sections was performed using a Zeiss Axiovert 200 M microscope (Carl Zeiss, Heidelberg, Germany) Images were captured with a digital camera (Orca ER, Hamamatsu) and processed using Axiovision 4.6.3 (Carl Zeiss).
For detection of myeloid derived suppressor cells (MDSCs), cells from mouse lung tissue in each group were collected and stained for 30 min at 4° C. with antibodies against specific cell markers, including FITC-conjugated anti-mouse CD11b (for cell surface), APC-Cy7 conjugated anti-mouse Ly-6C and PE conjugated anti-mouse Ly-6G, (both for intracellular staining). All three antibodies were obtained from Biolegend, (San Diego, Calif.). […]

K562 cells = conditions: cited from earlier work

For `COC(=O)/C=C/c1cc(O)c2c(c1)C(C(=O)OC)C(c1ccc(O)c(O)c1)O2` (centres unmarked) [Q2-3, methyl(E)-3-[2-(3,4-dihydroxyphenyl)-7-hydroxy-3-methoxycarbonyl-2,3-dihydro-1-benzofuran-5yl]-prop-2-enoate], the “survival rate of tumor-resected mice” value (4T1-Luc2 cells; 4T1 tumor resection model) was “significantly increased”, the “metastasis of 4T1 cells to the lung (luminescent activity)” value (4T1-Luc2 cells; ≥20 μg/kg i.v., 3 injections/week for 3 weeks post tumor resection) was “significantly suppress” and the “anti-metastatic activity compared with doxorubicin (2 mg/kg)” value (4T1-Luc2 cells; ≥20 μg/kg, luciferase activity) was “much higher anti-metastatic activity than treatment with doxorubicin”. For the same molecule, the “total FSP-1+ER-TR7+ fibroblast population in lung” value (IL-25; 3 weeks post tumor resection, PBS control 5.2%) was 7.3%, the “cell population of IL-25+ fibroblasts (FSP-1+ER-TR7+IL-25+ cells) in lung” value (IL-25; 3 weeks post tumor resection, PBS control 16.7%) was 79.5% and the “IL-25 expression in lung fibroblasts (IF staining)” value (IL-25; Q2-3 100 μg/kg, 21 days post tumor resection) was “readily detectable stimulatory effect”. The “increase in FSP-1+IL-25+ fibroblast population in spleen or other tissues” value (IL-25; data not shown) was “not detected” and the anti-proliferation effect (K562 cells) was “significant anti-proliferation effect”.

— patent US11207289B2, “Use of benzofuran lignans to induce IL-25 expression and suppress mammary tumor metastasis” (ACADEMIA SINICA, priority 2016, dated 2021)
